The source of these data is patent publication US11938137B2, “Lipid prodrugs of mycophenolic acid and uses thereof” (PureTech LYT, Inc., priority 2017, dated 2024).

A short description of the data set: Lymphatic transport assay in mesenteric lymph-duct cannulated rats. It is filed as in vivo, rat. The note with it: class symbols. The procedure: In order to assess the lymphatic transport of disclosed lipid prodrugs in rats, the mesenteric lymph ducts of the rats used in this study were cannulated to allow continual collection of mesenteric lymph. Lipid formulations containing the compound of interest were then administered to the animals, lymph was collected, and drug concentrations in the lymph samples were quantified.
Lipid-based formulations of the compounds of the invention or control compounds were prepared as previously described (Trevaskis, N. L. et al., Pharmaceutical Research, 2005, 22(11), 1863-1870, WO 2016/023082, and WO 2017/041139, hereby incorporated by reference.
In brief, either 1 or 2 mg of test prodrug, 40 mg oleic acid and 25 mg Tween 80 were mixed in a glass vial and incubated at 37° C. for 12-18 h to equilibrate. An aqueous phase consisting of 5.6 ml phosphate buffered saline (PBS, pH 7.4) was subsequently added to the lipid phase (MPA was dissolved in PBS for the preparation of MPA containing formulations) and the formulation emulsified by ultrasonication with a Misonix XL 2020 ultrasonic processor (Misonix, Farmingdale, NY, USA) equipped with a 3.2-mm microprobe tip running at 30% of the maximal amplitude of 240 μm and a frequency of 20 kHz for 2 min at room temperature. Doses for administering to more than one animal can be prepared in one batch by suitably increasing the quantities given above. Drug/prodrug concentrations in all formulations were verified using HPLC-MS.
Male Sprague-Dawley (SD) rats were selected for the lymphatic transport studies. Rats (typically 240-320 g) were maintained on a standard diet and fasted overnight with free access to water prior to experiments.
Anesthetized rats were placed on a heated pad at 37° C. and cannulas inserted into the duodenum (for formulation administration and rehydration), mesenteric lymph duct (for lymph collection), and carotid artery (in cases where blood collection was conducted). Post-surgery, rats were re-hydrated for 0.5 h via intraduodenal infusion of normal saline at 2.8 mL/h. The lipid formulations were infused into the duodenum at 2.8 mL/h for 2 h after which, normal saline was infused at 2.8 mL/h for the remainder of the experiment. Lymph was continuously collected for up to 8 h into pre-weighed Eppendorf tubes containing 10 μL of 1,000 IU/mL heparin. The collection tubes were changed hourly and lymph flow was measured gravimetrically. Aliquots of hourly lymph samples were stored at −20° C. prior to assay.
Drug concentration in lymph is expressed as total drug and includes free drug and drug associated with different glycerides. Lymph samples are first treated with a lipase or other appropriate conditions to liberate free active agent prior to measurement of active agent levels in the lymph. Treatment with a lipase or other hydrolysis conditions liberates free active agent from any corresponding re-esterified glycerides. Porcine pancreatic lipase is appropriate for this purpose. Alternatively, hydrolysis with 0.5 M NaOH may be used. For MPA “phenol” prodrugs (i.e. prodrugs linked to the triglyceride at the aromatic —OH group of MPA), hydrolysis was performed with 0.5 M NaOH except for the lymph samples collected from 3 rats in the group of compound I-20 (MPA-O-C12α′βMe-TG), which were hydrolyzed by porcine pancreatic lipase.
Transport of compounds into lymph during each hourly collection period was calculated from the product of the volume of lymph collected and the measured concentrations in lymph. For fluorescently-labelled compounds such as a BDP-conjugate, the concentrations of total compound may be measured by fluorescence spectroscopy without hydrolysis.
The results of the lymphatic transport assays are summarized in Table 2, below, and FIGS. 1-19. Table 2 summarizes lymphatic transport of total MPA related compound (% of administered dose) following intraduodenal infusion to anaesthetised, mesenteric lymph-duct cannulated rats. […]

The mark [1] stands for this setting: total MPA related compound, intraduodenal infusion, anesthetised mesenteric lymph-duct cannulated rats.

SMILES strings stand for the structures.

With `CCCCCCCCCCCCCCCC(=O)OCC(COC(=O)CCCCCCCCCCCCCCC)OC(=O)CCCCCCCCCOC(=O)CC/C(C)=C/Cc1c(O)c2c(c(C)c1OC)COC2=O` [I-46], the “Cumulative lymphatic transport % dose (Mean ± SD, or Range if n = 2)” value under setting [1] is on record as “A (greater than 10% (>10%))”.

As for `CCCCCCCCCCCCCCCC(=O)OCC(COC(=O)CCCCCCCCCCCCCCC)OC(=O)CCc1ccc(OC(=O)CC/C(C)=C/Cc2c(O)c3c(c(C)c2OC)COC3=O)cc1` [I-28, (E)-2-((3-(4-((6-(4-hydroxy-6-methoxy-7-methyl-3-oxo-1,3-dihydroisobenzofuran-5-yl)-4-methylhex-4-enoyl)oxy)phenyl)propanoyl)oxy)propane-1,3-diyl dipalmitate], the “Cumulative lymphatic transport % dose (Mean ± SD, or Range if n = 2)” value under setting [1] was “B (between 1% and 10% (1%-10%))”.

Regarding `CCCCCCCCCCCCCCCC(=O)OCC(COC(=O)CCCCCCCCCCCCCCC)OC(=O)CC(C)CCCCCCCCCCCC(=O)Oc1c(C/C=C(\C)CCC(=O)OC)c(OC)c(C)c2c1C(=O)OC2` (centres unmarked) [I-31, (E)-1-(1,3-bis(palmitoyloxy)propan-2-yl) 15-(6-methoxy-5-(6-methoxy-3-methyl-6-oxohex-2-en-1-yl)-7-methyl-3-oxo-1,3-dihydroisobenzofuran-4-yl) 3-methylpentadecanedioate], under setting [1], the “Cumulative lymphatic transport % dose (Mean ± SD, or Range if n = 2)” value is reported as “A (greater than 10% (>10%))”.

For the molecule `CCCCCCCCCCCCCCCC(=O)OCC(COC(=O)CCCCCCCCCCCCCCC)OC(=O)C(C)CCCCCCCCC(C)C(=O)OCOc1c(C/C=C(\C)CCC(=O)OC)c(OC)c(C)c2c1C(=O)OC2` (centres unmarked) [I-41], the “Cumulative lymphatic transport % dose (Mean ± SD, or Range if n = 2)” value under setting [1] is recorded as “A (greater than 10% (>10%))”.

With `CCCCCCCCCCCCCCCC(=O)OCC(COP(=O)(O)OCC[N+](C)(C)C)OC(=O)CC/C(C)=C/Cc1c(O)c2c(c(C)c1OC)COC2=O` (centres unmarked) [I-39], the “Cumulative lymphatic transport % dose (Mean ± SD, or Range if n = 2)” value under setting [1] was “C (less than 1% and greater than 0.24% (<1% and >0.24%))”.

Regarding `CCCCCCCCCCCCCCCC(=O)OCC(COC(=O)CCCCCCCCCCCCCCC)OC(=O)CCCCCCOC(=O)CC/C(C)=C/Cc1c(O)c2c(c(C)c1OC)COC2=O` [I-36, (E)-2-((7-((6-(4-hydroxy-6-methoxy-7-methyl-3-oxo-1,3-dihydroisobenzofuran-5-yl)-4-methylhex-4-enoyl)oxy)heptanoyl)oxy)propane-1,3-diyl dipalmitate], the “Cumulative lymphatic transport % dose (Mean ± SD, or Range if n = 2)” value under setting [1] is “B (between 1% and 10% (1%-10%))”.

Consider `CCCCCCCCCCCCCCCC(=O)OCC(COC(=O)CCCCCCCCCCCCCCC)OC(=O)CC(C)CCCCCCCC(C)C(=O)OCCCC(=O)Oc1c(C/C=C(\C)CCC(=O)OC)c(OC)c(C)c2c1C(=O)OC2` (centres unmarked) [I-62, (E)-12-(1,3-bis(palmitoyloxy)propan-2-yl) 1-(4-((6-methoxy-5-(6-methoxy-3-methyl-6-oxohex-2-en-1-yl)-7-methyl-3-oxo-1,3-dihydroisobenzofuran-4-yl)oxy)-4-oxobutyl) 2,10-dimethyldodecanedioate], for which the “Cumulative lymphatic transport % dose (Mean ± SD, or Range if n = 2)” value under setting [1] is listed as “A (greater than 10% (>10%))”.

On to `CCCCCCCCCCCCCCCC(=O)OCC(COC(=O)CCCCCCCCCCCCCCC)OC(=O)C(C)CCCCCCCCCC(=O)Oc1c(C/C=C(\C)CCC(=O)OC)c(OC)c(C)c2c1C(=O)OC2` (centres unmarked) [I-60], for which, under setting [1], the “Cumulative lymphatic transport % dose (Mean ± SD, or Range if n = 2)” value is “A (greater than 10% (>10%))”.

Take `CCCCCCCCCCCCCCCC(=O)OCC(COC(=O)CCCCCCCCCCCCCCC)OC(=O)CC(C)CCCCCCCCCOC(=O)CC/C(C)=C/Cc1c(O)c2c(c(C)c1OC)COC2=O` (centres unmarked) [I-51, (E)-2-((12-((6-(4-hydroxy-6-methoxy-7-methyl-3-oxo-1,3-dihydroisobenzofuran-5-yl)-4-methylhex-4-enoyl)oxy)-3-methyldodecanoyl)oxy)propane-1,3-diyl dipalmitate]: the “Cumulative lymphatic transport % dose (Mean ± SD, or Range if n = 2)” value under setting [1] is recorded as “A (greater than 10% (>10%))”.

Turning to `CCCCCCCCCCCCCCCC(=O)OCC(COC(=O)CCCCCCCCCCCCCCC)OC(=O)CC(C)CCCC(=O)Oc1c(C/C=C(\C)CCC(=O)OC)c(OC)c(C)c2c1C(=O)OC2` (centres unmarked) [I-16, MPA-(O—C10bMe-2-TG)-OMe], the “Cumulative lymphatic transport % dose (Mean ± SD, or Range if n = 2)” value under setting [1] is recorded as “A (greater than 10% (>10%))”.

In the case of `CCCCCCCCCCCCCCCC(=O)OCC(COC(=O)CCCCCCCCCCCCCCC)OC(=O)CC(C)CCCCCCCC(C)C(=O)Oc1c(C/C=C(\C)CCC(=O)OCCN2CCOCC2)c(OC)c(C)c2c1C(=O)OC2` (centres unmarked) [I-32, (E)-12-(1,3-bis(palmitoyloxy)propan-2-yl) 1-(6-methoxy-7-methyl-5-(3-methyl-6-(2-morpholinoethoxy)-6-oxohex-2-en-1-yl)-3-oxo-1,3-dihydroisobenzofuran-4-yl) 2,10-dimethyldodecanedioate], under setting [1], the “Cumulative lymphatic transport % dose (Mean ± SD, or Range if n = 2)” value was “A (greater than 10% (>10%))”.

Turning to `CCCCCCCCCCCCCCCC(=O)OCC(COC(=O)CCCCCCCCCCCCCCC)OC(=O)CC(C)CCCC(=O)Oc1c(C/C=C(\C)CCC(=O)OC)c(OC)c(C)c2c1C(=O)OC2` (centres unmarked) [I-53], the “Cumulative lymphatic transport % dose (Mean ± SD, or Range if n = 2)” value under setting [1] is reported as “A (greater than 10% (>10%))”.

Consider `CCCCCCCCCCCCCCCC(=O)OCC(COC(=O)CCCCCCCCCCCCCCC)OC(=O)CC(C)CCCCCCCC(C)C(=O)OCOc1c(C/C=C(\C)CCC(=O)OC)c(OC)c(C)c2c1C(=O)OC2` (centres unmarked) [I-44], for which, under setting [1], the “Cumulative lymphatic transport % dose (Mean ± SD, or Range if n = 2)” value is “A (greater than 10% (>10%))”.

Regarding `CCCCCCCCCCCCCCCC(=O)OCC(COC(=O)CCCCCCCCCCCCCCC)OC(=O)C(C)CCCCCCCCC(C)C(=O)Oc1cc(C)cc(C)c1C(C)(C)CC(=O)Oc1c(C/C=C(\C)CCC(=O)OC)c(OC)c(C)c2c1C(=O)OC2` (centres unmarked) [I-52], the “Cumulative lymphatic transport % dose (Mean ± SD, or Range if n = 2)” value under setting [1] is “B (between 1% and 10% (1%-10%))”.

Turning to `CCCCCCCCCCCCCCCC(=O)OCC(COC(=O)CCCCCCCCCCCCCCC)OC(=O)C(C)CCCCCCCC(=O)Oc1c(C/C=C(\C)CCC(=O)OC)c(OC)c(C)c2c1C(=O)OC2` (centres unmarked) [I-45], the “Cumulative lymphatic transport % dose (Mean ± SD, or Range if n = 2)” value under setting [1] is “A (greater than 10% (>10%))”.

Turning to `CCCCCCCCCCCCCCCC(=O)OCC(COC(=O)CCCCCCCCCCCCCCC)OC(=O)CCCCC(=O)Oc1c(C/C=C(\C)CCC(=O)OC)c(OC)c(C)c2c1C(=O)OC2` [I-18], under setting [1], the “Cumulative lymphatic transport % dose (Mean ± SD, or Range if n = 2)” value was “B (between 1% and 10% (1%-10%))”.

On to `CCCCCCCCCCCCCCCC(=O)OCC(COC(=O)CCCCCCCCCCCCCCC)OC(=O)CCCCCCCCCC(=O)Oc1c(C/C=C(\C)CCC(=O)OC)c(OC)c(C)c2c1C(=O)OC2` [I-48], for which the “Cumulative lymphatic transport % dose (Mean ± SD, or Range if n = 2)” value under setting [1] is “A (greater than 10% (>10%))”.

Turning to `CCCCCCCCCCCCCCCC(=O)OCC(COC(=O)CCCCCCCCCCCCCCC)OCCCCCCOC(=O)CC/C(C)=C/Cc1c(O)c2c(c(C)c1OC)COC2=O` [I-26, (E)-2-((6-((6-(4-hydroxy-6-methoxy-7-methyl-3-oxo-1,3-dihydroisobenzofuran-5-yl)-4-methylhex-4-enoyl)oxy)hexyl)oxy)propane-1,3-diyl dipalmitate], the “Cumulative lymphatic transport % dose (Mean ± SD, or Range if n = 2)” value under setting [1] is “C (less than 1% and greater than 0.24% (<1% and >0.24%))”.

For the molecule `CCCCCCCCCCCCCCCC(=O)OCC(COC(=O)CCCCCCCCCCCCCCC)OC(=O)CC(C)CCCCCCCC(C)C(=O)OCOC(=O)Oc1c(C/C=C(\C)CCC(=O)OC)c(OC)c(C)c2c1C(=O)OC2` (centres unmarked) [I-21, (E)-12-(1,3-Bis(palmitoyloxy)propan-2-yl) 1-(((((6-methoxy-5-(6-methoxy-3-methyl-6-oxohex-2-en-1-yl)-7-methyl-3-oxo-1,3-dihydroisobenzofuran-4-yl)oxy)carbonyl)oxy)methyl) 2,10-dimethyldodecanedioate], the “Cumulative lymphatic transport % dose (Mean ± SD, or Range if n = 2)” value under setting [1] was “B (between 1% and 10% (1%-10%))”.

For `CCCCCCCCCCCCCCCC(=O)OCC(COC(=O)CCCCCCCCCCCCCCC)OC(=O)CCCCCCCCCCCCCCCCCOC(=O)CC/C(C)=C/Cc1c(O)c2c(c(C)c1OC)COC2=O` [I-38, (E)-2-((18-((6-(4-hydroxy-6-methoxy-7-methyl-3-oxo-1,3-dihydroisobenzofuran-5-yl)-4-methylhex-4-enoyl)oxy)octadecanoyl)oxy)propane-1,3-diyl dipalmitate], the “Cumulative lymphatic transport % dose (Mean ± SD, or Range if n = 2)” value (as E2 but dose 1 mg/rat) was “B (between 1% and 10% (1%-10%))”.
